Experimental data taken from US9920050B2, “Fused heterocyclic compound and pest control use thereof” (Sumitomo Chemical Company, Limited, priority 2013, dated 2018).

What was measured:
Type in all cases: in vivo
Musca domestica = assay: Test Example 8: treated filter paper with sucrose bait, Musca domestica; settings: 500 ppm, 0.7 ml on filter paper, female imagoes, after 24 hours
Protocol: The formulations of Compounds of Present Invention 1, 9, 15 to 16, 19, 22, 24, 31 to 32, 34, 41 and 45 to 46 as produced in Formulation Example 5 were diluted with water, so as to have a concentration of the active ingredient of 500 ppm, to prepare each test drug solution.
(§1) A filter paper having a diameter of 5.5 cm was spread on the bottom of a polyethylene cup having the same diameter and 0.7 ml of the test drug solution was added dropwise onto the filter paper, and 30 mg of sucrose was uniformly placed as bait. Into the polyethylene cup, 10 female imagoes of Musca domestica were released, and the cup was sealed with a lid. After 24 hours, the life and death of Musca domestica was examined, the number of dead insects was counted, and the death rate was calculated according to the following equation. Death rate (%)=(Number of dead insects/Number of tested insects)×100

[1] = tested on: Haemaphysalis longicornis; assay: Test Example 11: coated screw tube contact test, Haemaphysalis longicornis ticks; settings: 2 mg compound coated on inner wall of screw tube, unfed nymphal ticks, after 2 days
Protocol: Two milligrams of each of Compounds of Present Invention 8 to 9, 20, 22 and 31 to 32 was weighed out in a screw tube (Maruemu No. 5; 27×55 mm), and 0.2 mL of acetone was added thereto, and the screw tube was sealed with a cap to dissolve the compound. The screw tube was rotated and inverted to uniformly coat the drug solution onto the whole inner wall of the tube. After removing the cap, the solution was air-dried for about 2 hours, then unfed nymphal ticks, Haemaphysalis longicornis (5 ticks/group) were released, and the tube was sealed with the cap. After 2 days, the number of dead insects was counted, and the death rate was calculated according to the following equation: Death rate (%)=100×(Number of dead insects/Number of tested insects)

Blattella germanica = assay: Test Example 9: treated filter paper with sucrose bait, Blattella germanica; settings: 500 ppm, 0.7 ml on filter paper, male imagoes, after 6 days
Protocol: The formulations of Compounds of Present Invention 9, 15 to 16, 19, 22, 30 to 32, 34, 41 and 45 to 46 as produced in Formulation Example 5 were diluted with water, so as to have a concentration of the active ingredient of 500 ppm, to prepare each test drug solution.
as §1, with “2 male” for “10 female”, “Blattella germanica” for “Musca domestica”, “6 days,” for “24 hours,”

Row | Compound | death rate (Musca domestica) [%] | death rate [1] [%] | death rate (Blattella germanica) [%]
1 | CCS(=O)(=O)c1cc(NC(=O)OCc2ccccc2)cnc1-c1nc2cc(C(F)(F)F)cnc2n1C [compound 1] | 100 |  | 
2 | CCS(=O)(=O)c1cc(NC(=O)C2CCC2)cnc1-c1nc2cc(C(F)(F)F)cnc2n1C [compound 8] |  | 100 | 
3 | CCS(=O)(=O)c1cc(NC2CC2)cnc1-c1nc2cc(C(F)(F)F)cnc2n1C [compound 9] | 100 | 100 | 100
4 | CCS(=O)(=O)c1cc(NNC(=O)OC)cnc1-c1nc2cc(C(F)(F)F)cnc2n1C [compound 15] | 100 |  | 100
5 | CCS(=O)(=O)c1cc(NC(=O)C(=O)N(C)C)cnc1-c1nc2cc(C(F)(F)F)cnc2n1C [compound 16] | 100 |  | 100
6 | CCS(=O)(=O)c1cc(NN)cnc1-c1nc2cc(C(F)(F)F)cnc2n1C [compound 19] | 100 |  | 100
7 | CCS(=O)(=O)c1cc(NCC2CCOC2)cnc1-c1nc2cc(C(F)(F)F)cnc2n1C (stereo not drawn) [compound 20] |  | 100 | 
8 | CCS(=O)(=O)c1cc(NC(=O)C2CC2)cnc1-c1nc2cc(C(F)(F)F)cnc2n1C [compound 22] | 100 | 100 | 100
9 | CCS(=O)(=O)c1cc(NC(=O)c2ccccn2)cnc1-c1nc2cc(C(F)(F)F)cnc2n1C [compound 24] | 100 |  | 
10 | CCS(=O)(=O)c1ccc(NOC)nc1-c1nc2cc(C(F)(F)F)cnc2n1C [compound 30] |  |  | 100
11 | CCS(=O)(=O)c1ccc(NC2CC2)nc1-c1nc2cc(C(F)(F)F)cnc2n1C [compound 31] | 100 | 100 | 
12 | CCS(=O)(=O)c1ccc(NC2CC2)nc1-c1nc2cc([S+]([O-])C(F)(F)F)ccc2o1 (stereo not drawn) [compound 32] | 100 | 100 | 100
13 | CCS(=O)(=O)c1ccc(NCc2ccccc2)nc1-c1nc2cc([S+]([O-])C(F)(F)F)ccc2o1 (stereo not drawn) [compound 34] | 100 |  | 100
14 | CCS(CC)=Nc1ccc(S(=O)(=O)CC)c(-c2nc3cc([S+]([O-])C(F)(F)F)ccc3o2)n1 (stereo not drawn) [compound 41] | 100 |  | 100
15 | CCS(=O)(=O)c1ccc(NC(=O)C2CC2)nc1-c1nc2cc([S+]([O-])C(F)(F)F)ccc2o1 (stereo not drawn) [compound 45] | 100 |  | 100
16 | CCS(=O)(=O)c1ccc(NCc2ccc(Cl)nc2)nc1-c1nc2cc([S+]([O-])C(F)(F)F)ccc2o1 (stereo not drawn) [compound 46] | 100 |  | 100
